How the values were obtained:
Type in all cases: biochemical
TEM-1 β-lactamase A237W [1] = molecular target: T1, TEM-1 β-lactamase A237W (Escherichia coli, UniProt P62593, A235W); assay: AVB covalent inhibition kinetics; details: A237W TEM-1
TEM-1 β-lactamase A237E [2] = molecular target: T2, TEM-1 β-lactamase A237E (Escherichia coli, UniProt P62593, A235E); assay: AVB covalent inhibition kinetics; details: A237E TEM-1
[3] = molecular target: T3, TEM-1 β-lactamase A237Y^e (ester) (Escherichia coli, UniProt P62593, A235Y); assay: AVB covalent inhibition kinetics; details: A237Y^e (ester) TEM-1
[4] = tested on: TEM-1 β-lactamase A237Y^e (ester); assay: AVB covalent inhibition kinetics; details: A237Y^e compared with A237Y
TEM-1 β-lactamase WT [5] = molecular target: T4, TEM-1 β-lactamase WT (Escherichia coli, UniProt P62593); assay: AVB covalent inhibition kinetics
TEM-1 β-lactamase A237Y [6] = molecular target: T5, TEM-1 β-lactamase A237Y (Escherichia coli, UniProt P62593, A235Y); assay: AVB covalent inhibition kinetics; details: A237Y TEM-1
TEM-1 β-lactamase A237R [7] = molecular target: T6, TEM-1 β-lactamase A237R (Escherichia coli, UniProt P62593, A235R); assay: AVB covalent inhibition kinetics; details: A237R TEM-1
[8] = molecular target: T3, TEM-1 β-lactamase A237Y^e (ester); assay: PenG acylation kinetics; details: A237Y^e (ester) TEM-1; median [68.25% confidence interval]
TEM-1 β-lactamase A237W [9] = molecular target: T1, TEM-1 β-lactamase A237W; assay: PenG acylation kinetics; details: A237W TEM-1; median [68.25% confidence interval]
TEM-1 β-lactamase A237Y [10] = molecular target: T5, TEM-1 β-lactamase A237Y; assay: PenG acylation kinetics; details: A237Y TEM-1; median [68.25% confidence interval]
TEM-1 β-lactamase WT [11] = molecular target: T4, TEM-1 β-lactamase WT; assay: PenG acylation kinetics
TEM-1 β-lactamase A237E [12] = molecular target: T2, TEM-1 β-lactamase A237E; assay: PenG acylation kinetics; details: A237E TEM-1; median [68.25% confidence interval]
TEM-1 β-lactamase A237R [13] = molecular target: T6, TEM-1 β-lactamase A237R; assay: PenG acylation kinetics; details: A237R TEM-1; median [68.25% confidence interval]

## NC(=O)[C@@H]1CC[C@@H]2CN1C(=O)N2OS(=O)(=O)O [AVB, avibactam]
TEM-1 β-lactamase A237W [1]
  AVB carbamylation rate, kcbm: 3.31 ± 0.05 s⁻¹
  AVB recyclization rate, krec: (6.7 ± 1.3) × 10^−4 s^−1
TEM-1 β-lactamase A237E [2]
  AVB carbamylation rate, kcbm: 4.63 ± 0.23 s⁻¹
  AVB recyclization rate, krec: (8.7 ± 1.5) × 10^−5 s^−1
[3]
  AVB carbamylation rate, kcbm: (1.8 ± 0.1) × 10^−3 s^−1
  AVB recyclization rate, krec: (3.4 ± 0.1) × 10^−7 s^−1
[4]
  decrease in kcbm, factor: 3.5 × 10^3
  decrease in krec, factor: 5.0 × 10^3
TEM-1 β-lactamase WT [5]; WT TEM-1
  AVB carbamylation rate, kcbm: 23.1 ± 0.2 s⁻¹
  AVB recyclization rate, krec: (2.3 ± 0.3) × 10^−4 s^−1
TEM-1 β-lactamase WT [5]; WT TEM·AVB, field −150 MV/cm
  enhancement of kcbm by the active site electric field: 7.5 orders of magnitude
TEM-1 β-lactamase WT [5]; WT TEM−AVB, field −97 MV/cm
  acceleration of recyclization by the active site electric field: 4.9 orders of magnitude
TEM-1 β-lactamase A237Y [6]
  AVB carbamylation rate, kcbm: 6.19 ± 0.08 s⁻¹
  AVB recyclization rate, krec: (1.7 ± 0.3) × 10^−3 s^−1
TEM-1 β-lactamase A237R [7]
  AVB carbamylation rate, kcbm: 3.63 ± 0.03 s⁻¹
  AVB recyclization rate, krec: (6.2 ± 0.9) × 10^−4 s^−1

## CC1(C)S[C@@H]2[C@H](NC(=O)Cc3ccccc3)C(=O)N2[C@H]1C(=O)O [PenG, penicillin G]
[8]
  PenG acylation rate, kac: 86.1 [69.2, 97.0] s^−1
TEM-1 β-lactamase A237W [9]
  PenG acylation rate, kac: 1390 [1366, 1415] s^−1
TEM-1 β-lactamase A237Y [10]
  PenG acylation rate, kac: 2838 [2740, 2940] s^−1
TEM-1 β-lactamase WT [11]; WT TEM-1, median [68.25% confidence interval]
  PenG acylation rate, kac: 4941 [4784, 5086] s^−1
TEM-1 β-lactamase WT [11]; WT TEM·PenG, field −171 MV/cm
  enhancement of kac by the active site electric field: 8.6 orders of magnitude
TEM-1 β-lactamase A237E [12]
  PenG acylation rate, kac: 5857 [5288, 6012] s^−1
TEM-1 β-lactamase A237R [13]
  PenG acylation rate, kac: 3265 [3137, 3396] s^−1
